Drawing on paper PMC11237073, “Bisphenol S causes excessive estrogen synthesis by activating FSHR and the downstream cAMP/PKA signaling pathway” (Communications Biology, 2024), this text covers Kd for one compound.

This experiment addresses T1, follicle stimulating hormone receptor (FSHR) (Homo sapiens, UniProt P23945).
T1 sequence (P23945 18-695): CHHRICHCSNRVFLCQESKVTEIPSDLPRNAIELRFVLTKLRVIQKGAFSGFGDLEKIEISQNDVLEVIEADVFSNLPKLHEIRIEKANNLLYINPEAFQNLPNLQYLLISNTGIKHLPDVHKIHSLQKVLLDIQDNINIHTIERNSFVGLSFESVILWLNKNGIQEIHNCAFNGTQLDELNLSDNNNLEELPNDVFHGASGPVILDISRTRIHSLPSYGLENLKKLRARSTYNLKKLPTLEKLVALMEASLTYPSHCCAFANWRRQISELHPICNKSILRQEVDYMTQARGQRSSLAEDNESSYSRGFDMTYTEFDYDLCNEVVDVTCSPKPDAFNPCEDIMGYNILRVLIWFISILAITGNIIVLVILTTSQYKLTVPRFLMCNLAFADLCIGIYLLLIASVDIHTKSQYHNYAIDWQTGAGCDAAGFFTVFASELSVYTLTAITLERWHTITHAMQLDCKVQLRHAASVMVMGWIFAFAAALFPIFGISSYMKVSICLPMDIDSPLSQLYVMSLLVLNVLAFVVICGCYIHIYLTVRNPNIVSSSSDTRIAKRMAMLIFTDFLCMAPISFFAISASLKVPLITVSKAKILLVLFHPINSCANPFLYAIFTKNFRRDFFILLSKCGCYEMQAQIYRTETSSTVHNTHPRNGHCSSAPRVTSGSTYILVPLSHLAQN
Description: isothermal titration calorimetry (Nano ITC, […] BPS into […] FSHR, sequential two-site model). The conditions noted are these: read-out: Value for specific binding site.

`O=S(=O)(c1ccc(O)cc1)c1ccc(O)cc1` [BPS, bisphenol S]: the Kd stood at 183 µM.
